Experimental data from patent publication US4868193A, “Styryl tetrazoles and anti-allergic use thereof” (Rorer Pharmaceutical Corporation, priority 1986, dated 1989).
Where a name gives a salt, the structure may show the parent alone. Read-outs that look alike come from different tables or passages of the source.

Legend:
[1] = tested on: LTD4 (leukotriene D4)-induced contraction of guinea pig peripheral lung strips; experiment: In vitro assay to identify leukotriene antagonist compounds (guinea pig lung strips), vs LTD4; format: cell-based; details: 50% reduction of muscle response, read-out: In Vitro I50
Experimental: (§1) In Vitro Assay to Identify Leukotriene Antagonist Compounds […] Peripheral strips of guinea pig lungs are prepared and hung in tissue baths according to the procedure described by Drazen et al. Male guinea pigs (Charles River, 250-400 g) are sacrificed by cervical dislocation and their lungs rapidly removed. The individual lobes are dissected free and rinsed in Assay Buffer which is continuously aerated with 95% oxygen-5% carbon dioxide. After the lobes are extensively rinsed, a strip of lung tissue, approximately 2 mm thick and 5-8 cm long, is cut off the sharpest and most peripheral portion of each lobe. The peripheral edge is cut almost completely around the outside of the lobe so that a U-shaped strip is obtained. These strips are rinsed in Assay Buffer and then connected with surgical silk thread to the support rods from the tissue baths. The rods are adjusted in the baths and the strips connected to the pressure transducers. The tissue baths are aerated with 95% oxygen-5% carbon dioxide and maintained at 37°. The tension on these strips is adjusted to 500 mg with "re-zeros" the pen deflection on the previously calibrated polygraph. Tissues are initially washed with fresh buffer every 5-10 minutes for about 30 minutes. Thereafter, tissues were washed with fresh assay buffer at least every 20 minutes. Normalizing Muscle Contractions and Testing of Compounds 1. After the tissues have been repeatedly washed and allowed to equilibrate in the tissue bath, they are challenged with 1μM histamine. [Usually 10 μl of a 1 mM stock solution are added to the baths.] After maximum concentrations have been obtained, then tissues are washed and allowed to relax back to baseline tension. This histamine challenge procedure is repeated at least 1 or 2 more times to obtain a repeatable control response. […] Leukotriene (usually 0.4 units/ml) is added after the desired preincubation time and the muscle response is recorded. […] From this curve the concentration responding to the 50% reduction of the muscle concentration is calculated as the ^I 50 value. […]

[2] = tested on: LTC4-induced contraction of guinea pig peripheral lung strips; experiment: In vitro assay to identify leukotriene antagonist compounds (guinea pig lung strips), vs LTC4; format: cell-based; details: Cavia porcellus, 50% reduction of muscle response, read-out: In Vitro I50
Experimental: as §1

[3] = tested on: LTD4 (leukotriene D4)-induced cutaneous wheal formation; experiment: Leukotriene D4-induced wheal formation in the guinea pig; design: species or system guinea pig (male Hartley); details: Cavia porcellus, po, 1 h, p.o., 0.1 μg LTD4 intradermally, given one hour before Evans blue dye, read-out: In Vivo LTD4 Wheal, ED50
Experimental: Leukotriene D4 -Induced Wheal formation in the Guinea Pig Leukotriene D4 (LTD4) increases vascular permeability in guinea pig skin. LTD4 antagonists are tested for oral activity in a model of LTD4 -induced cutaneous wheal formation in the guinea pig. Male Hartley guinea pigs are given either vehicle (polyethylene glycol 400) or test compound by gauge one hour before intravenous injection of 1% Evans blue dye. Immediately after dye injection, 0.1 μg of LTD4 (in a volume of 0.1 ml) is injected intradermally at two separate dorsal sites. Thirty minutes later, the animals are sacrificed by carbon dioxide asphyxiation, the dorsal skins reflected, and glued wheal areas measured. Mean values±standard error for wheal areas in vehicle- and drug-treated groups are determined. Inhibition of wheal formation is calculated by comparison of drug-treated and control groups.

SMILES | IC50 ([1]; Cavia porcellus) [µM] | IC50 [2] [µM] | IC50 ([1]; hydrochloride) [µM] | ED50 [3] [mg/kg]
N#CC=Cc1cccc(OCc2ccc3ccccc3n2)c1 [Example 1B, 3-(Quinolin-2-yl-methoxy)-cinnamylnitrile] | 0.65 | 1.2 |  | 
C(=Cc1nnn[nH]1)c1cccc(OCc2ccc3ccccc3n2)c1.Cl [Example 1C, 5-[3-(Quinolin-2-yl-methoxy)styryl]-tetrazole hydrochloride] | 0.06 | 0.15 | 0.08 | 22
C(=Cc1nnn[nH]1)c1ccc(OCc2ccc3ccccc3n2)cc1 [Example 2C, 5-[4-(Quinolin-2-yl-methoxy)styryl]-tetrazole hydrochloride] |  | 0.5 |  | 
